# According to US20060079537A1, “2-Substitutued triazolopyrimidines, methods and intermediate products for the production thereof, the use of the same controlling pathogenic fungi, and agents containing said compounds” (priority 2002, published 2006):
# Test system: Alternaria solani
# Experiment: Activity against early blight of tomato caused by Alternaria solani, protective application
# Format: in vivo
# Conditions: 250 ppm active compound, sprayed to runoff one day before infection; visual rating after 5 days; untreated plants 100% infected
# Method: The active compounds were formulated as a stock solution prepared using 0.25% by weight of active compound in acetone of DMSO. 1% by weight of the emulsifier Uniperol® EL (wetting agent having emulsifying and dispersant action based on ethoxylated alkylphenols) was added to this solution, and the solution was diluted with water to give the desired concentration.
# Leaves of potted plants of the tomato cultivar: “Large Fruited St. Pierre” were sprayed to runoff point with an aqueous suspension having the concentration of active compound stated below. The next day, the leaves were infected with an aqueous spore suspension of Alternaria solani in a 2% biomalt solution having a density of 0.17×10^6 spores/ml. The plants were then placed in a water-vapor-saturated chamber at 20-22° C. After 5 days, the blight on the untreated but infected control plants had developed to such an extent that the infection could be determined visually in %.
smiles,measurement,value
"CSc1nc2nc(C)c(-c3c(F)cc(F)cc3F)c(N3CCC(C)CC3)n2n1 [Example 3, 5-methyl-6-(2,4,6-trifluorophenyl)-7-(4-methylpiperidin-1-yl)-2-thiomethyl-[1,2,4]-triazolo[1,5-a]pyrimidine]",infection,20%
